Measurements: patent publication US7696243B2, “Pyrrolidin-2-one derivatives for use as DP1 receptor agonists” (Merck Serono, S.A., priority 2004, dated 2010)
“Also recorded” adds a separate entry of the source.

Key:
[1] = tested on: human penile cavernosal tissue strips; assay: Organ bath: relaxation of human penile cavernosal tissue strips after contraction with phenylephrine
Procedure: Human tissue procurement. Cavernosal tissue is obtained from patients undergoing penile prosthesis implantation surgery for treatment of erectile dysfunction. In the operating room, biopsies of the corpora cavernosa are immediately placed in chilled (4° C.) physiologic salt solution and transported to the laboratory. Tissue strips, measuring approximately 3 mm×3 mm×10 mm, are cut and prepared for organ bath studies.
Preparation of compound stock solutions and dose responses. PGE1 (Cayman Chemical Co., Ann Arbor, Mich.) is stored at −20° C. in solid form until the day of use. Stock solutions are made by adding 1 ml of 70% DMSO to a vial containing 1 mg of PGE1. Compounds of the invention are dissolved in 1 ml of 70% DMSO, divided into 100 μl aliquots and stored at −20° C. until use. For dose responses in organ baths, stock solutions of PGE1 and compounds of the invention are diluted with 70% DMSO to make the highest concentration and then serially diluted with 2% DMSO for all other doses. In a typical dose response curve, the concentration of DMSO is checked to remain below […] in the 25 ml bath and to not exceed 0.5% at the highest dose.
Organ bath studies. Human or rabbit cavernosal tissue strips are mounted onto a fixed support with silk ties and attached to a tension transducer (model FT03; GrassTelefactor, Astro-Med, Inc. West Warwick, R.I.) with a rigid metal wire. After mounting, tissue strips are immersed in 25 ml baths of physiologic salt solution (PSS; 118.3 mM NaCl, 4.7 mM KCl, 0.6 mMMgSO4, 1.2 mMKH2PO4, 2.5 mMCaCl2, 25 mMNaHCO3, 0.026 mM CaNa2EDTA, 11.1 mM glucose). The solution is gassed with 95% […]/5% CO2 to attain a pH of 7.4 and the temperature is maintained at 37° C. All tissue strips are treated with 3 μM indomethacin to inhibit endogenous prostanoid production and minimize spontaneous contractile activity. The corpus cavernosum tissue is stretched incrementally and the optimal resting isometric tension for contraction is determined. After every 3-4 stretches (1 g tension/stretch), the tissue is contracted with 1 μM phenylephrine. When the amplitude of the phenylephrine-induced contraction is within 10% of the previous contraction, that tension is considered optimal for isometric contraction. All tissue strips are extensively washed with fresh PSS. Tissue strips are then contracted with 1 μM phenylephrine. After stable tone is achieved, tissue strips are exposed to increasing concentrations of PGE1 or compounds of the invention.
Data analysis. At the end of each experiment, all tissue strips are treated with 10 μM papaverine and 10 μM nitroprusside to induce maximal relaxation (100%). The total amount of relaxatory response over the range of drug concentrations tested is determined by the area under the plotted curves. EC50 values are calculated using Prism software (GraphPad, San Diego, Calif.). For final analysis of data, relaxation parameters are compared using ANOVA. If the ANOVA p-value is less than 0.05, paired post-test comparisons is carried out using the Tukey-Kramer test.

h-DP1 [2] = target: T1, h-DP1 (Homo sapiens, UniProt Q13258); assay: DP1 receptor binding assay (SPA, receptor membranes)
T1 construct: expressed in transfected cells; host or cells: HEK293-EBNA
T1 sequence (Q13258 1-359): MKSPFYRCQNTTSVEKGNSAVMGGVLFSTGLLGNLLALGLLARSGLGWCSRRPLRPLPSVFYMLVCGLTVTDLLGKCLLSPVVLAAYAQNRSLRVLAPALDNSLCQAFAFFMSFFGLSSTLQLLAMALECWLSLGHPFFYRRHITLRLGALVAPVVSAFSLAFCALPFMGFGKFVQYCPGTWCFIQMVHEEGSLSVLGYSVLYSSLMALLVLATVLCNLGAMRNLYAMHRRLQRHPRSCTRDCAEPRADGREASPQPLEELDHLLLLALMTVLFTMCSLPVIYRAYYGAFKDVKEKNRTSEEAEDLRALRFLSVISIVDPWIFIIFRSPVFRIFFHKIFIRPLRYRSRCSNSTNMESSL
Procedure: (§1) HEK 293(ebna) cells or other cells stably transfected with the appropriate receptor are maintained in culture, harvested and membranes are prepared by differential centrifugation, following lysis of the cells in the presence of protease inhibitors, for use in receptor binding assays.
(§2) Prostanoid receptor binding assays are performed in 10 mM MES/KOH (pH 6.0) (EPs, FP and TP) or 10 mM HEPES/KOH (pH 7.4) (DP and IP), containing 1 mM EDTA, 10 mM divalent cation and the appropriate radioligand for the given receptor. The reaction is initiated by addition of membrane protein. Typically, the ligands are added in a solvent such as dimethylsulfoxide which is kept constant at 1% (v/v) in all incubations. Non-specific binding is determined in the presence of 1 μM of the corresponding non-radioactive prostanoid. Incubations are conducted for 60 min at room temperature or 30° C. and terminated by rapid filtration. Specific binding is calculated by subtracting non-specific binding from total binding. The residual specific binding at each ligand concentration is calculated and expressed as a function of ligand concentration in order to construct sigmoidal concentration-response curves for determination of ligand affinity.
(§3) In another protocol, compounds of the invention are tested in DP1 receptor binding assay of the following protocol. A mixture containing 20 μg of DP1 receptor membranes, 0.5 mg of wheat germ agglutinin coated PVT-SPA beads, plus or minus a test compound of the invention (25 μl per well) or 10 μM of cold PGE2 at 1% DMSO and 20 nM radiolabeled ligand for the receptor (e.g., tritiated-PGE2) in assay buffer containing 25 mM MES, 10 mM MgCl2, 1 mM EDTA, pH 6.0 are incubated in Corning 3600 plates on a plate shaker for 2 hrs at room temperature. Binding of the radiolabeled ligand binding is evaluated by counting the plates on the top count using the 3H SPA dpm2 program. % Binding and Ki value for inhibitors are calculated based on the one site competition parameter using the Graphpad® prism program. Such an assay may be modified by employing the different receptors and their specific ligands to assess the activity of the compounds of the present invention against such receptors. Using such an assay, the DP1 Ki values for a number of exemplary compounds of the present invention were calculated and are shown in Table 1.

h-DP2 = target: T2, h-DP2 (Homo sapiens, UniProt Q9Y5Y4); assay: Prostanoid receptor binding assay, DP2; details: n = 2
T2 construct: expressed in transfected cells; host or cells: HEK 293(ebna) cells or other stably transfected cells; membranes
T2 sequence (Q9Y5Y4 1-395): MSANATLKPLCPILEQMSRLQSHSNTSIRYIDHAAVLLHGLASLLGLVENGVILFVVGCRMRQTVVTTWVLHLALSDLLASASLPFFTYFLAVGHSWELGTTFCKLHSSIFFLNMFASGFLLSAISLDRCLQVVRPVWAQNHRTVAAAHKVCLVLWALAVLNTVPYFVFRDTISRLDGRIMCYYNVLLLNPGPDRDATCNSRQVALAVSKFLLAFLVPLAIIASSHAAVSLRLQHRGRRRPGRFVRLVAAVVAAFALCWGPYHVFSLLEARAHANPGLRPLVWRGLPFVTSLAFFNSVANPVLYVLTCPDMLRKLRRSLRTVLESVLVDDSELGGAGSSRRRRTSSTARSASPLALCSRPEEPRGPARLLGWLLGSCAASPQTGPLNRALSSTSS
Procedure: as §1, §2, §3

rabbits = assay: In vivo intracavernosal injection, erectile response (ICP/SAP); details: rabbit
Procedure: DP agonists were solubilized in 40% propylene glycol and administered by intracavernosal injection to deliver the indicated dose in 0.1 ml total volume. Since penile intracavernosal pressure (ICP) is ultimately limited by the systemic arterial pressure (SAP), all erectile responses were normalized by calculating the ration of ICP/SAP.

h-DP1 [3] = target: T1, h-DP1; assay: Whole cell second messenger (cAMP) assay on cells expressing DP1; format: cell-based
Procedure: Whole cell second messenger assays measuring stimulation (EP2, EP4, DP1, DP2 and IP in HEK 293(ebna) cells) or inhibition (EP3 in human erythroleukemia (HEL) cells) of intracellular cAMP accumulation or mobilization of intracellular calcium (EP1, FP and TP in HEK 293(ebna) cells stably transfected with apo-aequorin) are performed to determine whether receptor ligands are agonists or antagonists. For cAMP assays, cells are harvested and resuspended in HBSS containing 25 mM HEPES, pH 7.4. Incubations contain 100 μM RO-20174 (phosphodiesterase type IV inhibitor, available from Biomol) and, in the case of the EP3 inhibition assay only, 15 μM forskolin to stimulate cAMP production.
Samples are incubated at 37° C. for 10 min, the reaction is terminated and cAMP levels are then measured. For calcium mobilization assays, cells are charged with the co-factors reduced glutathione and coelenterazine, harvested and resuspended in Ham's F12 medium. Calcium mobilization is measured by monitoring luminescence provoked by calcium binding to the intracellular photoprotein aequorin. Ligands are added in dimethylsulfoxide which is kept constant at 1% (v/v) in all incubations.
For agonists, second messenger responses are expressed as a function of ligand concentration and both EC50 values and the maximum response as compared to a prostanoid standard are calculated. For antagonists, the ability of a ligand to inhibit an agonist response is determined by Schild analysis and both KB and slope values are calculated.
In another exemplary protocol, HEK293-EBNA cells transfected with the appropriate receptors are seeded in 96 well opaque plate (Costar #3917) at 4×10^4 cells per well in 100 μl of culture medium (D-MEM/F12 supplemented with 10% FBS, […] L-glutamine, and 250 μg/ml of hygromycin; all from GibcoBRL) and incubated at 37° C. After overnight incubation, the medium was removed from each well and replaced with 45 μl of assay medium consisted of phenol red free D-MEM/F-12, 0.1% BSA (GibcoBRL) and 0.1 mM 3 isobutyl-1-methyl-xanthine (Sigma). After 15 minutes of incubation at 37° C., 16-16-dimethyl PGE-2 or compounds at desired concentrations in 20 μl of assay medium were added to cells and further incubated at 37° C. for 1 hour. Total cAMP (intra- and extracellular) was measured by using a cAMP-screen ELISA System (Tropix #CS1000).

[4] = after contraction with phenylephrine

| Structure (SMILES) | EC50 [1, 4] | Ki (h-DP1 [2]) | Ki (h-DP2) | EC50 (h-DP1 [3]) | also measured |
| --- | --- | --- | --- | --- | --- |
| O=C(O)c1ccc(CCC[C@H]2CCC(=O)N2CC[C@@H](O)C2CCCCC2)cc1 [Example 1, 4-(3-(2S)-1-[(3R)-3-cyclohexyl-3-hydroxypropyl]-5-oxotetrahydro-1H-2-pyrrolylpropyl)benzoic acid] | – | 2.4 nM | > 10000 nM | – | EC50 ([1]; Homo sapiens, after contraction with phenylephrine): 29 nM; Relaxation of human penile cavernosal tissue strips (in words) [1, 4]: dose-dependent relaxation; Extent of relaxation (maximal effect) versus BW245C ([1]; human cavernosal tissue): greater; Systemic blood pressure (rabbits; any dose): no overt changes; Arterial pressure (rabbits; intracavernosal): remained constant; Duration of transient episodes of penile tumescence (rabbits; intracavernosal): 1 to 3 min; ICP/SAP (peak response or AUC) compared to vehicle (rabbits; intracavernosal): dose-dependant increases; Penile response at highest dose (rabbits; intracavernosal, 5 μg, single animals): repeated and transient episodes of spontaneous penile tumescence; also recorded: penile resistance arteries were fully dilated; Penile tumescence after intracavernosal injection (rabbits; intracavernosal, 40% propylene glycol): sustained periods of penile tumescence or transient episodes |
| O=C(O)CCCCCC[C@H]1CCC(=O)N1CC[C@@H](O)C1CCCCC1 [Example 3, 7-{(2S)-1-[(3R)-3-cyclohexyl-3-hydroxypropyl]-5-oxopyrrolidin-2-yl}heptanoic acid] | – | 1.8 nM | > 10000 nM | 0.037 nM | – |
| O=C(O)CCCCCCC1C(=O)NC(=O)N1CCC(O)C1CCCCC1 (stereo not shown) [BW245C, reference compound] | 59 nM | – | – | 0.031 nM | – |
| O=C(O)CCCCCC[C@H]1CCC(=O)N1CCC(O)C1CCCCC1 (stereo in doubt) [Example 4, 7-{(2S)-1-[(3R)-3-cyclohexyl-3-hydroxypropyl]-5-oxopyrrolidin-2-yl}heptanoic acid] | – | 47.2 nM | > 10000 nM | 1.38 nM | – |
| O=C(O)c1ccc(CCC[C@H]2CCC(=O)N2CC[C@H](O)C2CCCCC2)cc1 [Example 2, 4-(3-(2S)-1-[(3S)-3-cyclohexyl-3-hydroxypropyl]-5-oxotetrahydro-1H-2-pyrrolylpropyl)benzoic acid] | – | 10.5 nM | > 10000 nM | 0.71 nM | – |

The next lines start with results.

| EC50 [1, 4] | Ki (h-DP1 [2]) | Ki (h-DP2) | EC50 (h-DP1 [3]) | Structure (SMILES) | also measured |
| --- | --- | --- | --- | --- | --- |
| 210 nM | – | – | – | CCCCC[C@H](O)/C=C/[C@H]1[C@H](O)CC(=O)[C@@H]1CCCCCCC(=O)O [PGE1] | – |
| 0.3 nM | 4.1 nM | – | 0.3 nM | CCCCC[C@H](O)/C=C/[C@H]1C(=O)C[C@H](O)[C@@H]1C/C=C\CCCC(=O)O [PGD2] | Effect at concentrations higher than 0.3 μM ([1]; human cavernosal tissue): caused contraction; Concentration through which dose-dependent relaxation was seen ([1]; human cavernosal tissue, contraction at higher concentration): ≤ 0.3 µM |
